The record followed here is patent US7030134B2, “Pyrazolopyridinyl pyridine and pyrimidine therapeutic compounds” (SmithKline Beecham Corporation, priority 2001, dated 2006).

For orientation: IC50 means the concentration at which inhibition is half-maximal.

The structures appear in SMILES notation. Counter-ions that a name gives are not always drawn. Like-named read-outs stand apart in the source and are kept apart here.

This assay has as its system HSV-1. As to the kind of experiment: HSV-1 replication in infected Vero 76 cells, DNA hybridization capture assay. The assay is classed as cell-based, herpes simplex virus 1. Here is the method:
Vero 76 cells were maintained in MEM with Earle's salts, L-glutamine, 8% FBS (Hyclone, A-1111-L) and 100 units/mL Penicillin-100 μg/mL Streptomycin. For assay conditions, FBS was reduced to 2%. Cells are seeded into 96-well tissue culture plates at a density of 5×10^4 cells/well after being incubated for 45 min at 37° C. in the presence of HSV-1 or HSV-2 (MOI=0.001). Test compounds are added to the wells and the plates are incubated at 37° C. for 40–48 hours. Cell lysates are prepared as follows: media was removed and replaced with 150 μL/well 0.2 N NaOH with 1% Igepal CA 630 or NP-40. Plates were incubated up to 14 days at room temperature in a humidified chamber to prevent evaporation.
For the detection probe, a gel-purified, digoxigenin-labeled, […] PCR fragment of the HSV UL-15 sequence was utilized. PCR conditions included 0.5 μM primers, 180 μM dTTP, 20 μM dUTP-digoxigenin (Boehringer Mannheim 1558706), 200 μM each of dATP, dCTP, and dGTP, 1×PCR Buffer II (Perkin Elmer), 2.5 mM MgCl2, 0.025 units/μL of AmpliTaq Gold polymerase (Perkin Elmer), and 5 ng of gel-purified HSV DNA per 100 μL. Extension conditions were 10 min at 95° C., followed by 30 cycles of 95° C. for 1 min, 55° C. for 30 sec, and 72° C. for 2 min. The amplification was completed with a 10-min incubation at 72° C. Primers were selected to amplify a 728 bp probe spanning a section of the HSV1 UL 15 open reading frame (nucleotides 249–977). Single-stranded transcripts were purified with Promega M13 Wizard kits. The final product was mixed 1:1 with a mixture of 6 M GuSCN, 100 mM EDTA and 200 μg/mL herring sperm DNA and stored at 4° C.
The capture DNA plasmid (HSV UL13 region in pUC) was linearized by cutting with Xba I, denatured for 15 min at 95° C. and diluted immediately into Reacti-Bind DNA Coating Solution (Pierce, 17250, diluted 1:1 with TE buffer, pH 8) at 1 ng/μL 75 μL/well were added to Corning (#3922 or 9690) white 96-well plates and incubated at room temperature for at least 4 hrs before washing twice with 300 μL/well 0.2×SSC/0.05% Tween-20 (SSC/T buffer). The plates were then incubated overnight at room temperature with 150 μL/well 0.2 N NaOH, 1% IGEPAL and 10 μg/mL herring sperm DNA.
Twenty-seven (27) μL of cell lysate was combined with 45 μL of hybridization solution (final concentration:3M GuSCN, 50 mM EDTA, 100 μg/ml salmon sperm DNA, 5× Denhardt's solution, 0.25×APE, and 5 ng of the digoxigenin-labeled detection probe). APE is 1.5 M NH4-acetate, 0.15 M NH4H2 phosphate, and 5 mM EDTA adjusted to pH 6.0. Mineral oil (50 μL) was added to prevent evaporation. The hybridization plates were incubated at 95° C. for 10 minutes to denature the DNA, then incubated at 42° C. overnight. The wells were washed 6× with 300 μL/well SSC/T buffer then incubated with 75 μL/well anti-digoxigenin-HRP-conjugated antibody (Boehringer Mannheim 1207733, 1:5000 in TE) for 30 min at room temperature. The wells were washed 6× with 300 μL/well with PBS/0.05% Tween-20 before 75 μL/well SuperSignal LBA substrate (Pierce) was added. The plates were incubated at room temperature for 30 minutes and chemiluminescence was measured in a Wallac Victor reader.
The following results were obtained for HSV-1.

Where [1] appears, read: Human alphaherpesvirus 1, HSV-1 (MOI=0.001) in Vero 76 cells, 40–48 hours incubation, HSV DNA hybridization chemiluminescence readout, read-out: IC50.

With `Fc1ccc(-c2nn3c(NC4CCCC4)c(C(F)(F)F)ccc3c2-c2ccnc(N3CCCC3)n2)cc1` [Example 1, N-Cyclopentyl-2-(4-fluorophenyl)-3-[2-(1-pyrrolidinyl)-4-pyrimidinyl)-6-(trifluoromethyl)pyrazolo[1,5-a]pyridin-7-amine], under setting [1], the IC50 worked out at 5.3 µM. `[H]/N=C(/Nc1cc(Cl)cc2c(-c3ccnc(NC4CCCC4)n3)c(-c3ccc(F)cc3)nn12)NC1CCCC1` [Example 26, N-[5-Chloro-3-[2-(cyclopentylamino)pyrimidin-4-yl]-2-(4-fluorophenyl)pyrazolo[1,5-a]pyridin-7-yl]-N′-cyclopentylguanidine hydrochloride] registered an IC50 (Human alphaherpesvirus 1, Vero 76) of 0.26 µM.

On to `Clc1cc(NC2CCCC2)n2nc(-c3ccc(OCC4CC4)cc3)c(-c3ccnc(NC4CCCC4)n3)c2c1` [Example 34, 5-Chloro-3-[2-(cyclopentylamino)-4-pyrimidinyl]-N-cyclopentyl-2-[4-(cyclopropylmethoxy)phenyl]pyrazolo[1,5-a]pyridin-7-amine], for which, under setting [1], the 50% inhibitory concentration (IC50) was 0.12 µM. With `Fc1ccc(-c2nn3c(NC4CCCC4)c(Br)cc(Br)c3c2-c2nc(NC3CCCC3)ncc2Br)cc1` [Example 43, 4,6-Dibromo-3-[5-bromo-2-(cyclopentylamino)pyrimidin-4-yl]-N-cyclopentyl-2-(4-fluorophenyl)pyrazolo[1,5-a]pyridin-7-amine], the IC50 under setting [1] was > 40 µM. The same measure, in the same setting: for `Clc1cc(NC2CC2)n2nc(-c3ccc(OCC4CC4)cc3)c(-c3ccnc(NC4CCCC4)n3)c2c1` [Example 32, 5-Chloro-3-[2-(cyclopentylamino)-4-pyrimidinyl]-N-cyclopropyl-2-[4-(cyclopropylmethoxy)phenyl]pyrazolo[1,5-a]pyridin-7-amine] the value was 0.8 µM; for `Clc1cccc(-c2nn3c(Cl)cc(Cl)cc3c2-c2ccnc(NC3CCCC3)n2)c1` [Example 28, N-cyclopentyl-4-[5,7-dichloro-2-(3-chlorophenyl)pyrazolo[1,5-a]pyridin-3-yl]-2-pyrimidinamine], 3.5 µM.

`Oc1ccc(-c2nn3c(NC4CC4)cc(Cl)cc3c2-c2ccnc(NC3CCCC3)n2)cc1` [Example 31, 4-[5-Chloro-3-[2-(cyclopentylamino)-4-pyrimidinyl]-7-(cyclopropylamino)pyrazolo[1,5-a]pyridin-2-yl]phenol]: under setting [1], the 50% inhibitory concentration (IC50) worked out at 1.5 µM. Turning to `O=C(NCCCn1ccnc1)c1ccc2c(-c3ccnc(NC4CCCC4)n3)c(-c3ccc(F)cc3)nn2c1NC1CCCC1` [Example 9, 7-(Cyclopentylamino)-3-[2-(cyclopentylamino)-4-pyrimidinyl]-2-(4-fluorophenyl)-N-[3-(1H-imidazol-1-yl)propyl]pyrazolo[1,5-a]pyridine-6-carboxamide], the IC50 under setting [1] was 0.5 µM.

For the compound `Cc1cccc(-c2nn3c(NC4CC4)cc(Cl)cc3c2-c2ccnc(NC3CCCC3)n2)c1` [Example 20, 5-Chloro-3-[2-(cyclopentylamino)pyrimidin-4-yl]-N-cyclopropyl-2-(3-methylphenyl)pyrazolo[1,5-a]pyridin-7-amine], the IC50 under setting [1] is 0.5 µM. On the same count and under the same terms, for `Fc1ccc(-c2nn3c(NC4CC4)cc(Cl)cc3c2-c2ccnc(NC3CC3)n2)cc1` [Example 27, 5-Chloro-N-cyclopropyl-3-[2-(cyclopropylamino)pyrimidin-4-yl]-2-(4-fluorophenyl)pyrazolo[1,5-a]pyridin-7-amine] the value was 1.6 µM; for `O=C(c1ccc2c(-c3ccnc(NC4CCCC4)n3)c(-c3ccc(F)cc3)nn2c1NC1CCCC1)N1CCCC1` [Example 5, N-Cyclopentyl-3-[2-(cyclopentylamino)-4-pyrimidinyl]-2-(4-fluorophenyl)-6-(1-pyrrolidinylcarbonyl)pyrazolo[1,5-a]pyridin-7-amine], 4.1 µM. On to `Oc1ccc(-c2nn3c(NC4CCCC4)cc(Cl)cc3c2-c2ccnc(NC3CCCC3)n2)cc1` [Example 33, 4-[5-Chloro-3-[2-(cyclopentylamino)-4-pyrimidinyl]-7-(cyclopentylamino)pyrazolo[1,5-a]pyridin-2-yl]phenol], for which the concentration for half-maximal inhibition (IC50) under setting [1] turned out to be 0.8 µM. The same measure, in the same setting: for `O=C(NC(CO)CO)c1ccc2c(-c3ccnc(NC4CCCC4)n3)c(-c3ccc(F)cc3)nn2c1NC1CCCC1` [Example 10, 7-(Cyclopentylamino)-3-[2-(cyclopentylamino)-4-pyrimidinyl]-2-(4-fluorophenyl)-N-[2-hydroxy-1-(hydroxymethyl)ethyl]pyrazolo[1,5-a]pyridine-6-carboxamide] the value was 4.2 µM. Still for that read-out and setting: as for `COc1ccc(-c2nn3c(Cl)cc(Cl)cc3c2-c2ccnc(SC)n2)cc1` [Example 35, 5,7-dichloro-2-(4-methoxyphenyl)-3-[2-(methylthio)pyrimidin-4-yl]pyrazolo[1,5-a]pyridine], the figure is > 40 µM; as for `CN1CCN(c2cc(Cl)cc3c(-c4ccnc(NC5CCCC5)n4)c(-c4ccc(F)cc4)nn23)CC1` [Example 23, 4-[5-Chloro-2-(4-fluorophenyl)-7-(4-methyl-1-piperazinyl)pyrazolo[1,5-a]pyridin-3-yl]-N-cyclopentyl-2-pyrimidinamine], 0.5 µM; as for `COc1ccc(-c2nn3c(NC4CCCC4)cc(Cl)cc3c2-c2ccnc(SC)n2)cc1` [Example 36, N-{5-Chloro-2-(4-methoxyphenyl)-3-[2-(methylsulfanyl)-4-pyrimidinyl]pyrazolo[1,5-a]pyridin-7-yl}-N-cyclopentylamine], 22 µM.

In the case of `O=C(O)c1ccc2c(-c3ccnc(NC4CCCC4)n3)c(-c3ccc(F)cc3)nn2c1NC1CCCC1` [Example 4, 7-(Cyclopentylamino)-3-[2-(cyclopentylamino)-4-pyrimidinyl]-2-(4-fluorophenyl)pyrazolo[1,5-a]pyridine-6-carboxylic acid], the half-inhibitory concentration (IC50) under setting [1] is 0.5 µM. The same measure, in the same setting: as for `Clc1cc(NC2CCCC2)n2nc(-c3ccc(OCC4CC4)cc3)c(-c3ccnc(NC4CC4)n3)c2c1` [Example 40, N-(4-{5-Chloro-7-(cyclopentylamino)-2-[4-(cyclopropyl-methoxy)phenyl]pyrazolo[1,5-a]pyridin-3-yl}-2-pyrimidinyl)-N-cyclopropylamine], the figure is 1.3 µM; as for `COc1ccc(-c2nn3c(NC4CCCC4)cc(Cl)cc3c2-c2ccnc([S+](C)[O-])n2)cc1` (centres unmarked) [Example 37, N-{5-Chloro-2-(4-methoxyphenyl)-3-[2-(methylsulfinyl)-4-pyrimidinyl]pyrazolo[1,5-a]pyridin-7-yl}-N-cyclopentylamine], 6 µM; as for `Cc1cccc(-c2nn3c(NC4CCCC4)cc(Cl)cc3c2-c2ccnc(NC3CCCC3)n2)c1` [Example 19, 5-Chloro-N-cyclopentyl-3-[2-(cyclopentylamino)pyrimidin-4-yl]-2-(3-methylphenyl)pyrazolo[1,5-a]pyridin-7-amine], 0.2 µM. On the same count and under the same terms, as for `COc1ccc(-c2nn3c(NC4CC4)cc(Cl)cc3c2-c2ccnc(NC3CCCC3)n2)cc1` [Example 30, N-{4-[5-Chloro-7-(cyclopropylamino)-2-(4-methoxyphenyl)pyrazolo[1,5-a]pyridin-3-yl]-2-pyrimidinyl}-N-cyclopentylamine], the figure is 0.33 µM; as for `Fc1ccc(-c2nn3c(Cl)cc(Cl)cc3c2-c2ccnc(NC3CCCC3)n2)cc1` [Example 12, N-Cyclopentyl-4-[5,7-dichloro-2-(4-fluorophenyl)pyrazolo[1,5-a]pyridin-3-yl]-2-pyrimidinamine], 7 µM; as for `COCCOc1cc(NC2CCCC2)n2nc(-c3ccc(F)cc3)c(-c3ccnc(NC4CCCC4)n3)c2c1` [Example 46, N-Cyclopentyl-3-[2-(cyclopentylamino)-4-pyrimidinyl]-2-(4-fluorophenyl)-5-(2-methoxyethoxy)pyrazolo[1,5-a]pyridin-7-amine], 0.13 µM.
